This is an account of results in US9789099B2, “Cosmetic or dermatological preparation for prophylaxis and/or treatment of atopic dermatitis” (Beiersdorf AG, priority 2012, dated 2017).

Common to all, as to assay type: in vivo, human
Test [1] concerns lesional skin of patients with atopic dermatitis. Nature of the test: Same study: parameters of the epidermal barrier function (TEWL, skin moisture) on lesional skin. An excerpt: (§1) Using a randomized, blind (participant), controlled, two-armed study design, it was the aim to evaluate the cortisone saving potential and the non-inferiority of the test sample during an application twice daily lasting for four weeks compared to the […] treatment with 1% hydrocortisone (HC), followed by an application of the test sample for a further three weeks. The study results were based on an assessment, controlled by the dermatologist, of the degree of severity of the clinical size of atopic dermatitis, the colonization of the skin lesions with S. aureus, biotechnological measurement of parameters of the epidermal barrier function, as well as the itching intensity in the test area.

Test [2] concerns patients with atopic dermatitis of mild to moderate severity. Nature of the test: Randomized, blind, controlled two-armed study: dermatologist-assessed clinical severity (local SCORAD, erythema).
Text: Using a randomized, blind (participant), controlled, two-armed study design, it was the aim to evaluate the cortisone saving potential and the non-inferiority of the test sample during an application twice daily lasting for four weeks compared to the once-weekly treatment with 1% hydrocortisone (HC), followed by an application of the test sample for a further three weeks. The study results were based on an assessment, controlled by the dermatologist, of the degree of severity of the clinical size of atopic dermatitis, the colonization of the skin lesions with S. aureus, biotechnological measurement of parameters of the epidermal barrier function, as well as the itching intensity in the test area.
Test [3] deals with S. aureus. Nature of the test: Same study: colonization of the skin lesions with S. aureus. Particulars: topical; same two-arm design.
Text: as §1

With `C[C@]12CCC(=O)C=C1CC[C@@H]1[C@@H]2[C@@H](O)C[C@@]2(C)[C@H]1CC[C@]2(O)C(=O)CO` [1% hydrocortisone, hydrocortisone], the “skin moisture of lesional skin” value in test [1] (application in the first study week) is listed as “only slightly”. In addition, the “lesional skin TEWL (transepidermal water loss)” value in test [1] (topical, same two-arm design) is “significant reduction”. The erythema result in test [2] (topical, same two-arm design) is recorded as “significant reduction”. Also, in test [2] (topical, test sample twice daily for four weeks vs 1% HC for first week followed by test sample for three weeks), the “local SCORAD” value is recorded as “significant reduction”. Also, in test [2] (within the first study week, differences between arms not significant apart from TEWL on day 7), the “changes in local SCORAD, erythema, TEWL and S. aureus colonization relative to the other arm” value was “greater changes”. Besides, the “colonization of skin lesions with S. aureus” value in test [3] is listed as “significant reduction”.
